Reference: publication PMC12242667, “Attenuation of 6‑OHDA-Induced Neurotoxicity by 1,2,3-Triazole-Based Sulfonamides through SIRT1 Activity” (ACS Omega, 2025)
Where two headings read alike, the source gives them in different places.

Experiments:
[1] = tested on: normal embryonic lung (MRC-5) cell line; assay: Cytotoxicity on MRC-5 cell line, MTT assay; assay type: cell-based; conditions: Homo sapiens, MRC5, MRC-5 cells, 48 h incubation
Procedure: Normal embryonic lung MRC-5 cells and neuroblastoma SH-SY5Y cells from the American Type Culture Collection (Manassas, VA, USA) were maintained in DMEM with 10% heat-inactivated FBS and 1% penicillin-streptomycin at 37 °C in humidified air containing 5% carbon dioxide.
Cytotoxicity of 1,2,3-triazole-based sulfonamides was evaluated by using a normal embryonic lung (MRC-5) cell line. The MRC-5 cells were cultured in 96-well microtiter plates (Corning Inc., NY, USA) at 5,000–20,000 cells/well and incubated for 24 h at 37 °C in humidified air containing 5% carbon dioxide. Subsequently, various concentrations of 1,2,3-triazole derivatives, doxorubicin (used as a positive control), and DMSO (used as a negative control) were added and incubated for an additional 48 h. MTT reagent (0.5 mg/mL in medium) was added for cell staining and incubated for 4 h. Then, the remaining formazan was dissolved in DMSO by sonication. The absorbance of the test wavelength of 550 nm and the reference wavelength of 650 nm was analyzed with a microplate reader (Molecular Devices, CA, USA). IC50 of each compound was determined as the concentration of the compound that inhibits cell growth by 50%.

[2] = tested on: 6-OHDA-induced SH-SY5Y neuronal cells; assay: Cellular leakage of LDH enzyme; assay type: cell-based, Human; conditions: percentage of control; for LDH leakage (LDH activity): 5 μM pretreatment 3 h, then 50 μM 6-OHDA 24 h
Procedure: Leakage of LDH, an enzyme commonly used as an assessment factor to evaluate cellular damage, was measured to determine the protective ability of the compounds against 6-OHDA-induced neuronal damage. 1.0 × 10^5 cells/mL of SH-SY5Y neuronal cells were seeded into 6-well plates for 24 h. The cells were pretreated with 5 μM of 1,2,3-triazole-based sulfonamide derivatives for 3 h before being treated with 50 μM of 6-OHDA for 24 h. The cell culture medium of SH-SY5Y cells was collected, and LDH leakage was evaluated using the LDH assay kit. In the presence of LDH, lactate is converted into pyruvate, resulting in an elevated level of NADH production, which is determined via the change in absorbance at 450 nm. LDH activity was calculated according to the manufacturer’s instructions and shown as a percentage of the control group.

[3] = tested on: 6-OHDA-induced SH-SY5Y neuronal cells; assay: Neuroprotection: cell viability of 6-OHDA-induced SH-SY5Y cells, MTT assay; assay type: cell-based, Human; conditions: then 50 μM 6-OHDA 24 h
Procedure: (§1) Prior to investigations, 1.0 × 10^5 SH-SY5Y neuronal cells/mL were seeded into 96-well plates for 24 h. To determine the optimal concentration of 6-OHDA for inducing neurotoxicity, cells were seeded into 96-well plates for 24 h and treated with various concentrations of 6-OHDA ranging from 25 to 125 μM for another 24 h. For the evaluation of the cytotoxicity of 1,2,3-triazole-based sulfonamide derivatives on SH-SY5Y neuronal cells, the cells were treated with various concentrations (0.1–10 μM) of 1,2,3-triazole-based sulfonamide derivatives for 24 h.^29 To assess the neuroprotective activity of 1,2,3-triazole-based sulfonamide derivatives, the cells were pretreated with various concentrations (0.1–10 μM) of 1,2,3-triazole-based sulfonamide derivatives for 3 h before being treated with 50 μM of 6-OHDA for another 24 h. Cell viability was assessed by incubating with 5 mg/mL of MTT reagent for 3 h at 37 °C, followed by absorbance measurement at 570 nm using a microplate reader (Thermo Fisher Scientific Inc., MA, USA). The viability of SH-SY5Y cells at each concentration was analyzed as a percentage relative to the control group.

[4] = tested on: 6-OHDA-induced SH-SY5Y neuronal cells; assay: Intracellular ROS production, H2DCFDA assay; assay type: cell-based; conditions: Homo sapiens, relative to control; for activity at 5 µM: 5 μM pretreatment 3 h, then 50 μM 6-OHDA 24 h
Procedure: ROS production in SH-SY5Y neuronal cells was investigated using H2DCFDA. 1.0 × 10^5 cells/mL of SH-SY5Y neuronal cells were seeded into 96-well plates for 24 h, and 5 μM of selected 1,2,3-triazole-based sulfonamide derivatives were pretreated for 3 h. Then, neurotoxicity of the cells were induced with 50 μM of 6-OHDA for another 24 h. The neuronal cells with 10 μM H2DCFDA were incubated for 30 min at 37 °C in the dark. The emission and excitation wavelengths of 528 nm and 485 nm, respectively, were measured by using a microplate reader. The measured ROS production was calculated as a percentage relative to the control group.

SIRT1 = target: T1, SIRT1 (Homo sapiens, UniProt Q96EB6); assay: SIRT1 deacetylase activity in SH-SY5Y cell lysate; assay type: cell-based; conditions: for activity at 5 µM: 5 μM pretreatment 3 h, then 50 μM 6-OHDA 24 h, relative to control
T1 construct: endogenous in cells; host or cells: SH-SY5Y
T1 sequence (Q96EB6 1-747): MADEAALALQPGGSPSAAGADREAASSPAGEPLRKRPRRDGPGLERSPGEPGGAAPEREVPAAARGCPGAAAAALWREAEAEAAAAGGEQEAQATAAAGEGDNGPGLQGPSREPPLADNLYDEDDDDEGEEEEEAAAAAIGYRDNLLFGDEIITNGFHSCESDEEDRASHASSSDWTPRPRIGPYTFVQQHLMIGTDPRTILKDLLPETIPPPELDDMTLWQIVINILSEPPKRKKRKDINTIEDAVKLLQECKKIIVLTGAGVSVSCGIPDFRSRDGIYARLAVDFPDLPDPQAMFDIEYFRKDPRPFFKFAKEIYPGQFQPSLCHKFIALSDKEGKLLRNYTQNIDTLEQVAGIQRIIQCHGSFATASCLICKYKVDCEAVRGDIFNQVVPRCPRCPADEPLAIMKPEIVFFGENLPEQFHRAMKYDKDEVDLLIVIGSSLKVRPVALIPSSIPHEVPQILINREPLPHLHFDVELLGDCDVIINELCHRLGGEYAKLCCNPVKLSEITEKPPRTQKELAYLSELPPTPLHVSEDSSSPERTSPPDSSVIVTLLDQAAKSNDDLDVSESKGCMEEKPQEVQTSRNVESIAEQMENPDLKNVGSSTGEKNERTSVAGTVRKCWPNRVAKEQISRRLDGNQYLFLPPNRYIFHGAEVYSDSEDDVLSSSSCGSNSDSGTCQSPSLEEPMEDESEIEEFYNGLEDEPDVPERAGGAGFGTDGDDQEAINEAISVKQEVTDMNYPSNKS
Procedure: SH-SY5Y neuronal cells at 1.0 × 10^5 cells/mL were seeded into 6-well plates for 24 h. Then, the cells were pretreated with 5 μM 1,2,3-triazole-based sulfonamide derivatives for 3 h before neurotoxicity was induced with 50 μM 6-OHDA for another 24 h. The cell culture medium was rinsed off with cold 1X PBS. The cells were incubated at 4 °C with 1X RIPA buffer containing a protease inhibitor for 20 min before being harvested using a cell scraper, followed by centrifugation at 12,000 rpm for 20 min. Protein concentrations were measured using the Bradford protein assay, and SIRT1 activity in the cells was determined following the manufacturer’s instructions. The increase in SIRT1 enzyme activity was measured by fluorescence intensity at an excitation wavelength of 340 nm and an emission wavelength of 445 nm. SIRT1 enzyme activity was statistically analyzed as a percentage relative to the control group.

[5] = Cytotoxicity of 6-OHDA against SH-SY5Y cells, MTT assay; assay type: cell-based; conditions: human, SH-SY5Y neuronal cells, relative to control, read-out: cell viability; for viability at 24 h: 6-OHDA
Procedure: as §1

Row | Structure (SMILES) | IC50 [1] | LDH leakage (LDH activity) [2] | cell viability of 6-OHDA-induced cells ([3]; pretreatment 1 μM 3 h) | cell viability of 6-OHDA-induced cells ([3]; pretreatment 5 μM 3 h) | activity at 5 µM [4] | activity at 5 µM (SIRT1) | other results
1 | O=S(=O)(NCCc1ccccc1)c1ccc(-n2cc(-c3ccccc3)nn2)cc1 [1a] | 103 ± 1.31 µM | – | – | – | – | – | –
2 | O=S(=O)(c1ccc(-n2cc(COc3ccccc3)nn2)cc1)N1CCc2ccccc2C1 [1b] | 59 ± 3.69 µM | – | – | – | – | – | –
3 | O=c1ccc2ccc(OCc3cn(-c4cccc(S(=O)(=O)N5CCc6ccccc6C5)c4)nn3)cc2o1 [1c] | 14.4 ± 0.34 µM | – | – | – | – | – | –
4 | Cc1ccc(OCc2cn(-c3ccc(S(=O)(=O)NCCc4ccccc4)cc3)nn2)cc1 [2a] | 89.4 ± 2.95 µM | 109.8 ± 3.826% | 90.11 ± 5.567% | 89.25 ± 3.236% | 102 ± 4.74% | 91.9 ± 1.45% | –
5 | Cc1ccc(OCc2cn(-c3ccc(S(=O)(=O)N4CCc5ccccc5C4)cc3)nn2)cc1 [2b] | 70.4 ± 6.8 µM | – | – | – | – | – | –
6 | O=c1cc(OCc2cn(-c3cccc(S(=O)(=O)N4CCc5ccccc5C4)c3)nn2)c2ccccc2o1 [2c] | > 97.2 µM | – | – | – | – | – | –
7 | O=Cc1ccc(OCc2cn(-c3ccc(S(=O)(=O)NCCc4ccccc4)cc3)nn2)cc1 [3a] | > 108 µM | 112.6 ± 2.585% | 85.36 ± 4.615% | 87.69 ± 4.276% | 103 ± 4.94% | 92.5 ± 1.98% | –
8 | O=Cc1ccc(OCc2cn(-c3ccc(S(=O)(=O)N4CCc5ccccc5C4)cc3)nn2)cc1 [3b] | > 105 µM | 115.6 ± 2.926% | 89.37 ± 4.597% | 90.41 ± 7.193% | 103 ± 5.8% | 94.3 ± 3.28% | –
9 | COc1cc2c(cc1OC)CN(S(=O)(=O)c1cccc(-n3cc(COc4ccc5ccc(=O)oc5c4)nn3)c1)CC2 [3c] | > 87 µM | – | – | – | – | – | –
10 | O=[N+]([O-])c1ccc(OCc2cn(-c3ccc(S(=O)(=O)NCCc4ccccc4)cc3)nn2)cc1 [4a] | 80.4 ± 3.79 µM | 113.3 ± 6.585% | 88.68 ± 3.959% | 85.48 ± 4.470% | 103 ± 5.15% | 92.9 ± 3.19% | –
11 | Cc1ccccc1OCc1cn(-c2ccc(S(=O)(=O)N3CCc4ccccc4C3)cc2)nn1 [4b] | 19 ± 0.89 µM | 113.5 ± 2.954% | 88.69 ± 4.465% | 84.03 ± 1.563% | 102 ± 5.64% | 91.06 ± 0.589% | –
12 | COc1cc2c(cc1OC)CN(S(=O)(=O)c1cccc(-n3cc(COc4cc(=O)oc5ccccc45)nn3)c1)CC2 [4c] | > 87 µM | – | – | – | – | – | –
13 | Cc1ccccc1OCc1cn(-c2ccc(S(=O)(=O)NCCc3ccccc3)cc2)nn1 [5a] | > 111 µM | 116.0 ± 2.698% | 91.89 ± 9.100% | 90.88 ± 6.158% | 104 ± 4.42% | 93.7 ± 2.54% | –
14 | CC(=O)c1ccccc1OCc1cn(-c2ccc(S(=O)(=O)N3CCc4ccccc4C3)cc2)nn1 [5b] | 15.4 ± 1.1 µM | – | – | – | – | – | –
15 | NCCc1cc(O)c(O)cc1O [6-OHDA, 6-hydroxydopamine] | – | – | – | – | – | – | LDH activity ([2]; 50 μM 6-OHDA alone, 24 h): 132.4 ± 5.089%; viability at 24 h, 25 μM ([5]; 6-OHDA 25 μM (first of five concentrations 25–125 μM)): 90 ± 2.81%; viability at 24 h, 125 μM ([5]; 6-OHDA 125 μM (fifth of five concentrations 25–125 μM)): 54.4 ± 3.06%; viability at 24 h ([5]; fourth of five concentrations 25–125 μM): 56.2 ± 2.37%; viability at 24 h ([5]; second of five concentrations 25–125 μM): 78.5 ± 2.73%; viability at 24 h ([5]; third of five concentrations 25–125 μM): 61.6 ± 2.44%; activity at 50 µM ([4]; 50 μM 6-OHDA alone, 24 h): 119 ± 4.75%; activity at 50 µM (SIRT1; 24 h, read-out: SIRT1 activity): 78.8 ± 3.74%
16 | O=c1ccc2ccc(OCc3cn(-c4ccc(S(=O)(=O)NCCc5ccccc5)cc4)nn3)cc2o1 [6a] | 55.3 ± 1.45 µM | – | – | – | – | – | –
17 | O=c1cc(OCc2cn(-c3ccc(S(=O)(=O)N4CCc5ccccc5C4)cc3)nn2)c2ccccc2o1 [6b] | > 97.2 µM | – | – | – | – | – | –
18 | O=c1cc(OCc2cn(-c3ccc(S(=O)(=O)NCCc4ccccc4)cc3)nn2)c2ccccc2o1 [7a] | > 99.5 µM | – | – | – | – | – | –
19 | COc1ccc(CCNS(=O)(=O)c2ccc(-n3cc(-c4ccccc4)nn3)cc2)cc1OC [8a] | 78.8 ± 8.11 µM | – | – | – | – | – | –
20 | COc1cccc2c1C(=O)c1c(O)c3c(c(O)c1C2=O)C[C@@](O)(C(=O)CO)C[C@@H]3O[C@H]1C[C@H](N)[C@H](O)[C@H](C)O1 [Doxorubicin, reference compound] | 2.57 ± 0.36 µM | – | – | – | – | – | –
21 | Oc1ccc(/C=C/c2cc(O)cc(O)c2)cc1 [Resveratrol, reference compound] | – | 115.6 ± 2.723% | 88.04 ± 6.146% | 92.06 ± 9.069% | 101 ± 5.5% | 92.6 ± 1.06% | cell viability of 6-OHDA-induced cells ([3]; pretreatment 0.1 μM (first of four concentrations 0.1–10 μM) 3 h): 90.01 ± 4.738%; cell viability of 6-OHDA-induced cells ([3]; pretreatment 10 μM (last of four concentrations 0.1–10 μM) 3 h): 90.47 ± 9.763%
